Measurements as given in patent US20200170975A1 (Strongbridge Dublin Limited, priority 2018, published 2020).
Where two headings read alike, the source gives them in different places.

Assays:
P-gp [1] = target: T1, P-gp (Homo sapiens, UniProt P08183); details: 120 min
OAT4 = target: T2, OAT4 (Homo sapiens, UniProt Q9NSA0); test: OAT4 inhibition: accumulation of [3H]-estrone-3-sulfate in S2 cells; assay type: in vitro ADME
T2 construct: expressed in transfected cells; host or cells: S2 cells
T2 sequence (Q9NSA0 1-550): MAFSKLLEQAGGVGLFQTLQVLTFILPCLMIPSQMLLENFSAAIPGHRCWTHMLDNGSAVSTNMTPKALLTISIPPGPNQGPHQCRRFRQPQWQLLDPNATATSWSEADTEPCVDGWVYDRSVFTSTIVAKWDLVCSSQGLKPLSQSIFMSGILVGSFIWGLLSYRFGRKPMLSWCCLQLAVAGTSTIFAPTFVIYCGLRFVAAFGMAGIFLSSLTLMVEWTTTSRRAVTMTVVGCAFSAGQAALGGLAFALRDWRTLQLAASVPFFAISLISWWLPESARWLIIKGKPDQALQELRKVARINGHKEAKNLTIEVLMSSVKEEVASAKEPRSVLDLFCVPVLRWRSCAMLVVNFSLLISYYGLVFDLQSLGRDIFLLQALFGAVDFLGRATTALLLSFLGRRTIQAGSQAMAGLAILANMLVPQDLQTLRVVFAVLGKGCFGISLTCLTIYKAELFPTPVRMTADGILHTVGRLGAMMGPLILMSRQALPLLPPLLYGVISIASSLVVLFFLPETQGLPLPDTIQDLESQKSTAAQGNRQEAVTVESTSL
Procedure: (§1) Schneider 2 (S2) cells are a commonly used Drosophila melanogaster cell lines from a primary culture of late stage (20-24 hours old) embryos from a macrophage-like lineage. S2 cells are used to express heterologous proteins, to produce proteins on a large scale, and to easily and transiently transfect with several plasmids at once to study protein interactions.
(§2) [^14C]-Metformin (1 mM) was provided as a solid and was prepared in Hank's balanced salt solution (HBSS).

P-gp [2] = target: T1, P-gp
BCRP = target: T3, BCRP (Homo sapiens, UniProt Q9UNQ0); test: BCRP inhibition: bidirectional transport of prazosin across MDCKII-BCRP and control MDCKII cells; details: for Recovery (%) A:B / Recovery (%) B:A / % control: 120 min
T3 sequence (Q9UNQ0 1-655): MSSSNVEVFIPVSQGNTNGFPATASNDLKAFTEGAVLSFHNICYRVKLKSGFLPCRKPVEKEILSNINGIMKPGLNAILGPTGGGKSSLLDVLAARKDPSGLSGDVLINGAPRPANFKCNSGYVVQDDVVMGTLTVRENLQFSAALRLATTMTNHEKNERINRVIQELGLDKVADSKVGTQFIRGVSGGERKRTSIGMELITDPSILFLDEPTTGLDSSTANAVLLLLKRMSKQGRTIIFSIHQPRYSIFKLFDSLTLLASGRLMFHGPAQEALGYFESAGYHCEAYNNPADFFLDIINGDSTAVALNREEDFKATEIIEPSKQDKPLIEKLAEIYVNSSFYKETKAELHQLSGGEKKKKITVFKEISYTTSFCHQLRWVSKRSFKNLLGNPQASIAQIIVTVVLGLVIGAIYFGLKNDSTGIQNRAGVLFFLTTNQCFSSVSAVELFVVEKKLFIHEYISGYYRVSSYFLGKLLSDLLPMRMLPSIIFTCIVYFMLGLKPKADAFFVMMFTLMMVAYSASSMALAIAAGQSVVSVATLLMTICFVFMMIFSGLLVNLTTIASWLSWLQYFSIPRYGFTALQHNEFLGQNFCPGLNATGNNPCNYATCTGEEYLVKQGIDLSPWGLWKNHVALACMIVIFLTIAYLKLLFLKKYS
Text: MDCKII P-gp, MDCKII BCRP and control MDCKII cells were purchased from the Netherlands Cancer Institute.

OAT2 = target: T4, OAT2 (Homo sapiens, UniProt Q9Y694); test: OAT2 inhibition: accumulation of [3H]-PGE2 in S2 cells; assay type: in vitro ADME
T4 construct: expressed in transfected cells; host or cells: S2 cells
T4 sequence (Q9Y694 1-548): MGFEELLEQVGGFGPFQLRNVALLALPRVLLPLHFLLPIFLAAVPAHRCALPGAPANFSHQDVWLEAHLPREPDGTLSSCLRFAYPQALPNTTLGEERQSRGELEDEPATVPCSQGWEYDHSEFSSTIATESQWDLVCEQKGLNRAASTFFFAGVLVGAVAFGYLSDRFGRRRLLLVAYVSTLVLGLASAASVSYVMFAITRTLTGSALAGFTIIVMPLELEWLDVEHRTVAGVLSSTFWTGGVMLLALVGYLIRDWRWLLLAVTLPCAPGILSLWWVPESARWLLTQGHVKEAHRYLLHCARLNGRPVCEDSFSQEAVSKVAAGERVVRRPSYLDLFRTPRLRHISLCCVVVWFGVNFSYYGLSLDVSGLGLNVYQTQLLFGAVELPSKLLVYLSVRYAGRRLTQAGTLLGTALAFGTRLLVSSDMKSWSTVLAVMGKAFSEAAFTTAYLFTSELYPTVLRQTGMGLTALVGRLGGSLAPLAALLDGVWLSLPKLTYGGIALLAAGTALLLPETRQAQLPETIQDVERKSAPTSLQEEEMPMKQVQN
Procedure: as §1, §2

T1 sequence (P08183 whole entry): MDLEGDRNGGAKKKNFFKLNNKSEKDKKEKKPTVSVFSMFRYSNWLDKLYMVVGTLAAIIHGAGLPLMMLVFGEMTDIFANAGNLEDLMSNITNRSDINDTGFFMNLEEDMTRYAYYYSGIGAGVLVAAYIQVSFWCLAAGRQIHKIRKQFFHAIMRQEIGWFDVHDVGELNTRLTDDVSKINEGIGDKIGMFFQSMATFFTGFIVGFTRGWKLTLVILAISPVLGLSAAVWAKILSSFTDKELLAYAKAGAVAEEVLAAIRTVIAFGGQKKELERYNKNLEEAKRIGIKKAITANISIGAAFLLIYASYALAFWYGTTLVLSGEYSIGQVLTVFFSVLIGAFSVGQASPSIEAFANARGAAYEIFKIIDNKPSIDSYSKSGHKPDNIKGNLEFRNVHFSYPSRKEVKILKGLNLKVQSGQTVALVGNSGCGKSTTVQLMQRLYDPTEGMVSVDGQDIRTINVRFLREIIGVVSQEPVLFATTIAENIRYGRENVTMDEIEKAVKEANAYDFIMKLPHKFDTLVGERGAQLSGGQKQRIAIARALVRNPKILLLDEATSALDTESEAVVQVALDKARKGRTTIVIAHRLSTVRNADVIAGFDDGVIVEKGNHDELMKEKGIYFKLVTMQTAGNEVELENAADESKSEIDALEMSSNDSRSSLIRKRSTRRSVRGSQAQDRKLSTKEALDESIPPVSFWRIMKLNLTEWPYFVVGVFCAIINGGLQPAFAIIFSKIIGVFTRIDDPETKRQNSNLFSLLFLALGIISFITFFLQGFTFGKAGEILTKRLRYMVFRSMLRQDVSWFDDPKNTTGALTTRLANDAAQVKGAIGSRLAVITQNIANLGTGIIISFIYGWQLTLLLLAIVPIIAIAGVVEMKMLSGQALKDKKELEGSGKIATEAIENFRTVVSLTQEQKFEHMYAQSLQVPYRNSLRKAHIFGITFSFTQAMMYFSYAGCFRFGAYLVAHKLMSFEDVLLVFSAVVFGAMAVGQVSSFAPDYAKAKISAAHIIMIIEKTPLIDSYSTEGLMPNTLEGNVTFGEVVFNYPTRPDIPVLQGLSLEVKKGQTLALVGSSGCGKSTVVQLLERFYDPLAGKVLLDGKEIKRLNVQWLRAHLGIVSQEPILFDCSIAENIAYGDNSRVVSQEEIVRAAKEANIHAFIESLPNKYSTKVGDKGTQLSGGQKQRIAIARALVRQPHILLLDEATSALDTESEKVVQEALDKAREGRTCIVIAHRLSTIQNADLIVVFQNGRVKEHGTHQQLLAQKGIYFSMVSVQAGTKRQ

NS(=O)(=O)c1cc(Cl)c(Cl)c(S(N)(=O)=O)c1 [Dichlorphenamide, 4,5-dichloro-1,3-benzenedisulfonamide]
% control (P-gp [1]; 3 μM): 74.0% | % control (P-gp [1]; 10 μM): 98.2% | % control (P-gp [1]; 30 μM): 89.8% | % control (P-gp [1]; 100 μM): 79.2% | % control (P-gp [1]; 300 μM): 275% | % control (P-gp [1]; 1000 μM): 127% | IC50 (OAT4): > 1000 µM | IC50 (P-gp [2]): > 1000 µM | IC50 (BCRP): > 1000 µM | Recovery (%) A:B (BCRP; dog, MDCK, 1000 μM): 84.7% | Recovery (%) B:A (BCRP; dog, MDCK, 1000 μM): 77.0% | % control (BCRP; human, 3 μM): 124% | % control (BCRP; human, 10 μM): 91.4% | % control (BCRP; human, 30 μM): 83.3% | % control (BCRP; human, 100 μM): 91.2% | % control (BCRP; human, 300 μM): 91.9% | % control (BCRP; human, 1000 μM): 60.0% | Recovery (%) A:B (BCRP; human, 1000 μM): 93.0% | Recovery (%) B:A (BCRP; human, 1000 μM): 83.7% | IC50 (OAT2): > 1000 µM
